Measured values: US20190282560A1, “1-Methylnicotinamide for the Treatment of Diseases Associated With C-Reactive Protein” (Pharmena S.A., priority 2016, published 2019)

Test system: C-reactive protein
Assay: Randomized, double-blind, placebo controlled, forced dose-escalation, multicenter study; hs-CRP blood levels
Type: in vivo, human
Source text: The study was a randomized, double-blind, placebo controlled, forced dose-escalation, multicenter study.
Inclusion Criteria • Patients were at least 18 years of age and ≤80 years of age at the time of informed consent; • Women of childbearing potential must have a negative urine pregnancy test at screening and visit 4.
Exclusion Criteria • Patients who were pregnant, planning to become pregnant during the study, or nursing • Patients who had with clinically significant electrocardiographic abnormalities at visit 1 or visit 4; • Patients who had body mass index>45 kg/m2 at visit 1; • Patients who had weight change of >5% of initial body weight between visits 1 and 4 (randomization); • Patients who had poorly controlled diabetes defined as a hemoglobin A1c>9.5% prior to visit 4 (randomization); • Patients who had evidence of hepatic disease (ALT or AST greater than 2.0 ULN, bilirubin greater than 1.5 ULN, or cirrhosis) at visit 1; • Patients who had renal dysfunction defined as glomerular filtration rate (GFR)<60 mL/min/1.73 m2 at visit 1; • Patients who had hypothyroidism that was not treated or not stable for at least 6 months prior to study entry; • Patients who had poorly controlled hypertension defined as a mean systolic blood pressure above 160 mm Hg and/or diastolic blood pressure above 100 mmHg at visit 1.
Following signature of informed consent, 164 patients received 1000 mg placebo three times daily with meals in a single-blind manner for a dietary-controlled baseline period of 6 to 8 weeks. From the sample of eligible subjects who completed the 6 to 8 week dietary-controlled baseline period, 71 subjects (22 received placebo and 49 received 1-MNA chloride) meeting all inclusion and no exclusion criteria were randomized in a double-blind manner ([…]) to the treatment arm. The treatment periods were: weeks 1 and 2 two 500 mg tablets administered three times daily with meals (total daily dose 3000 mg); weeks 3 to 14 two 1000 mg tablets administered three times daily with meals (total daily dose 6000 mg). Down titration to 3000 mg daily was allowed in the event that a subject could not tolerate the 6000 mg daily treatment for the stipulated period. Under this scenario, the down-titrated subject remained on the tolerated dose for the duration of the trial. hs-CRP blood levels were evaluated during the baseline period, upon randomization and throughout the active treatment period. All blood samples were collected following a 12-hour fast. Throughout the study, the subjects were required to adhere to a heart-healthy diet and abstain from/minimize ethyl alcohol intake. Safety and tolerability were assessed throughout the trial through the evaluation of physical exams, electrocardiograms, routine hematology ad blood chemistry testing, vital signs and adverse events.
In the analysis, adjusted geometric mean percent change was obtained by exponentiating the adjusted mean from the ANCOVA model, then subtracting 1 and multiplying by 100. Bounds of the 95% confidence intervals were obtained similarly. Based on the ANCOVA model of the change in log-transformed CRP including treatment group and log-transformed baseline value, the change in CRP level in blood in this study was approximately −17% relative to placebo.

[1] = end of study, oral 3000 mg daily weeks 1-2, 6000 mg daily weeks 3 to 14, n 45

C[n+]1cccc(C(N)=O)c1 [1-MNA chloride, 1-methylnicotinamide]
Lowering of blood or serum CRP level from baseline (baseline to end of study, 3000 then 6000 mg daily, 14 weeks): about 16%
Adjusted geometric mean percent change from baseline in C-reactive protein (baseline to end of study, ANCOVA on log-transformed CRP, 3000 then 6000 mg daily, 14 weeks): −15.66%
C-reactive protein, Baseline, Geometric mean (baseline, before double-blind treatment, n 49): 2.9 mg/L
C-reactive protein, Baseline, Mean ± SD (baseline, before double-blind treatment, patients with serum triglycerides 200-500 mg/dL, n 49): 4.0 ± 5.4 mg/L
C-reactive protein, End of study, Geometric mean [1]: 2.4 mg/L
C-reactive protein, End of study, Mean ± SD [1]: 3.3 ± 3.2 mg/L
C-reactive protein, Change from baseline to end of study, Mean ± SD (oral 3000 mg daily weeks 1-2, 6000 mg daily weeks 3 to 14, n 45): -0.8 ± 4.7 mg/L
